Calls of active or inactive are those of the source. No rule for the calls is given here.

The term IC50 denotes the concentration needed to halve the response being measured. The IC90 is the concentration at which the effect reaches the 90% level. Read a low IC90 as greater potency.

For the test, the system named is M. tuberculosis H37Rv growth inhibition with meropenem. Nature of the test: dose response, H37Rv, with and without meropenem (AID 434987).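 Also: growth over 7 days at 37 °C before Alamar Blue read on day 9.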
Where [1] appears, read: M. tuberculosis H37Rv growth inhibition, measured here: IC50 without meropenem.
[2] abbreviates: M. tuberculosis H37Rv growth inhibition, measured here: IC90 without meropenem.
[3] abbreviates: measured here: IC90 with meropenem.

Consider `N=C1C(c2nc(-c3ccc(Cl)cc3)cs2)=C(O)CN1CCCN1CCOCC1`, for which the IC50 is > 100 µM (inactive). Under setting [1], this compound showed a 50% inhibitory concentration (IC50) greater than 100 µM. The IC90 under setting [2] was greater than 100 µM. Moreover, the IC90 under setting [3] was greater than 100 µM.

For `CCC(C(=O)Nc1ccccc1N1CCCC1)c1ccccc1` (stereo not drawn), the IC50 is 48.8 µM (inactive). This compound also came in with a half-inhibitory concentration (IC50) under setting [1] greater than 100 µM. Under setting [2], the 90% effect concentration (IC90) was greater than 100 µM. Under setting [3], this compound yielded an IC90 greater than 100 µM.

On to `CCOC(=O)c1sc(NC(=O)CSc2n[nH]c(CC(C)C)n2)nc1C`, for which the IC50 is 19.3 µM (inactive). For the same compound, the 50% inhibitory concentration (IC50) under setting [1] came to 46.5 µM. Moreover, the IC90 under setting [2] was greater than 100 µM. Besides, the IC90 under setting [3] is greater than 100 µM.

On to `CCOc1ccc(NC(=S)Nc2cccnc2)cc1`, for which the IC50 was 89.5 µM (inactive). Under setting [1], this compound displayed an IC50 greater than 100 µM. Also, the IC90 under setting [2] is greater than 100 µM. This compound also registered a concentration for an effect of 90% (IC90) under setting [3] greater than 100 µM.

Take `CCCn1nc2cc(C(=O)NCCCCc3ccccc3)ccc2c1OCC`: the IC50 was 90.1 µM (inactive). The compound further showed a half-inhibitory concentration (IC50) under setting [1] of 92.3 µM. The same compound had an IC90 under setting [2] greater than 100 µM. For the same compound, the IC90 under setting [3] was greater than 100 µM.

In the case of `COc1ccc(/C=N\NC(=O)c2sc(N)nc2C)cc1OC`, the IC50 is > 100 µM (inactive). Besides, under setting [1], the 50% inhibitory concentration (IC50) is greater than 100 µM. The IC90 under setting [2] is greater than 100 µM. The compound also returned an IC90 under setting [3] greater than 100 µM.

Regarding `CCC(=O)NC(=S)Nc1ccc(NC(=O)c2ccccc2[N+](=O)[O-])cc1`, the IC50 is > 100 µM (inactive). For the same compound, the concentration for half-maximal inhibition (IC50) under setting [1] is greater than 100 µM. Further, the concentration for an effect of 90% (IC90) under setting [2] was greater than 100 µM. Under setting [3], this compound came in with a concentration for an effect of 90% (IC90) greater than 100 µM.

Consider `CCOc1cc(C(=O)N2CCC(CC3CC(c4ccccc4)=NO3)(C(=O)NCc3ccc(OC)cc3)CC2)cc(OCC)c1OCC` (stereo not drawn), for which the IC50 is > 100 µM (inactive). The 50% inhibitory concentration (IC50) under setting [1] is greater than 100 µM. Under setting [2], this compound gave a concentration for an effect of 90% (IC90) greater than 100 µM. The compound also came in with an IC90 under setting [3] greater than 100 µM.

As to `O=C(Nc1ccc(Br)cc1)c1cccnc1N1CCCCC1`, the IC50 was > 100 µM (inactive). The compound also displayed a half-inhibitory concentration (IC50) under setting [1] greater than 100 µM. The concentration for an effect of 90% (IC90) under setting [2] was greater than 100 µM. The 90% effect concentration (IC90) under setting [3] is greater than 100 µM.

With `Cc1noc(/C=C/Nc2ccc(F)cc2F)c1[N+](=O)[O-]`, the IC50 is > 100 µM (inactive). The IC50 under setting [1] was greater than 100 µM. Under setting [2], this compound yielded a concentration for an effect of 90% (IC90) greater than 100 µM. The compound further came in with a concentration for an effect of 90% (IC90) under setting [3] greater than 100 µM.

With `COC(=O)C1=C(C)NC(=O)/C1=C\c1cc(C)n(-c2c(C)cccc2C)c1C`, the IC50 was 88 µM (inactive). Under setting [1], this compound yielded a half-maximal inhibitory concentration (IC50) greater than 100 µM. Further, the concentration for an effect of 90% (IC90) under setting [2] is greater than 100 µM. The compound further had an IC90 under setting [3] of 99.8 µM.

In the case of `O=C(Oc1c(-c2ccccc2Cl)oc2ccccc2c1=O)c1ccc(Cl)cc1`, the IC50 was 11 µM. Besides, the half-maximal inhibitory concentration (IC50) under setting [1] amounted to 47.5 µM. The same compound registered an IC90 under setting [2] greater than 100 µM. The same compound displayed a 90% effect concentration (IC90) under setting [3] greater than 50 µM.

For `CC(C)CCSc1nc(N2CCOCC2)c2c(c1C#N)CC(C)(C)OC2`, the IC50 was 78.2 µM (inactive). For the same compound, the concentration for half-maximal inhibition (IC50) under setting [1] is greater than 100 µM. Further, the concentration for an effect of 90% (IC90) under setting [2] is greater than 100 µM. Also, the 90% effect concentration (IC90) under setting [3] was greater than 100 µM.

For `COc1ccccc1CNC(=O)c1ccc(SC)cc1OC`, the IC50 was 49.8 µM (inactive). In addition, the IC50 under setting [1] was 83.5 µM. This compound had an IC90 under setting [2] greater than 100 µM. This compound also came in with an IC90 under setting [3] greater than 100 µM.

For the compound `C=CCSc1nc2c(c(-c3ccsc3)c1C#N)CN(C)CC2`, the IC50 is 50.6 µM (inactive). Under setting [1], the IC50 worked out at 65.7 µM. The compound also returned a 90% effect concentration (IC90) under setting [2] greater than 100 µM. Under setting [3], this compound returned an IC90 of 55.1 µM.

As for `COC(=O)Cn1c2ccccc2c2nc(C)sc21`, the IC50 is 18.9 µM (inactive). For the same compound, the IC50 under setting [1] came out at 25.4 µM. Moreover, the concentration for an effect of 90% (IC90) under setting [2] was found to be 44.4 µM. This compound came in with a 90% effect concentration (IC90) under setting [3] of 27.8 µM.

As for `O=C(OCC(=O)c1ccc[nH]1)C1=COCCO1`, the IC50 is 18.3 µM. The IC50 under setting [1] was 88.8 µM. Under setting [2], this compound came in with an IC90 greater than 100 µM. The same compound had a 90% effect concentration (IC90) under setting [3] greater than 100 µM.

Turning to `O=S1(=O)CCO[C@H]2Cc3ccccc3[C@H]2N1Cc1ccc(F)cc1`, the IC50 is > 100 µM (inactive). The compound also gave a half-maximal inhibitory concentration (IC50) under setting [1] greater than 100 µM. Further, the 90% effect concentration (IC90) under setting [2] was greater than 100 µM. The same compound had a concentration for an effect of 90% (IC90) under setting [3] greater than 100 µM.

For `CN(C)/N=C/c1ccc(/C=N/NC(N)=S)o1`, the IC50 was 15.2 µM. The half-inhibitory concentration (IC50) under setting [1] came to 90.8 µM. In addition, the IC90 under setting [2] is greater than 100 µM. This compound came in with a concentration for an effect of 90% (IC90) under setting [3] of 43.3 µM.

In the case of `CN(C)c1ccc(/C=C/c2nc3ccccc3s2)cc1`, the IC50 was 8.97 µM. The same compound showed an IC50 under setting [1] greater than 100 µM. This compound showed an IC90 under setting [2] greater than 100 µM. The compound further came in with a concentration for an effect of 90% (IC90) under setting [3] greater than 100 µM.

As for `Cc1ccccc1CSc1nnc(C)c(=O)n1N`, the IC50 was 19.5 µM (inactive). The compound further came in with an IC50 under setting [1] of 45.4 µM. Besides, the IC90 under setting [2] is greater than 100 µM. Under setting [3], this compound returned a 90% effect concentration (IC90) of 32.3 µM.

For the compound `Cc1ccc(OCC(=O)Nc2ccc(-c3nc4ncccc4o3)cc2)c(C)c1`, the IC50 is > 100 µM (inactive). This compound also displayed an IC50 under setting [1] greater than 100 µM. This compound returned a concentration for an effect of 90% (IC90) under setting [2] greater than 100 µM. Under setting [3], this compound returned an IC90 greater than 100 µM.
